The results in this text go back to patent US12642827B2, “Lactic acid bacteria strain—antibacterial peptides produced by said strain and related pharmaceutical compositions” (UNIVERSITE DE LILLE, priority 2019, dated 2026).

Ends that are not written are not given here. His‑tag = His-Tag tail of six histidine residues (6 His), attached at the N- or C-terminal end

A word on the MIC: it is the lowest concentration that inhibits growth of the organism.

Assay type in all cases: cell-based, Escherichia coli
Assay [1] has as its system E. coli colistin-resistant strain. Nature of the assay: Anti-E. coli activity (AU/mL) of recombinant peptides. The note with it: purified on Ni-NTA, adjusted to pH 5. From the text: Each of the orf coding for putative bacteriocin was cloned in expression vector suitable for E. coli competent cells. Each orf was cloned under the control of the inducible T7 promoter and with His-Tag (6 His) tail positioned on the N-terminal or C-terminal part. The cloning of each orf at the N- or C-terminal position of Histag tail, has led to 10 recombinant plasm ids. Each of these recombinant plasm ids was introduced in E. coli BL21 (DE3)(plysS) competent cells. The successfully transformed E. coli was regenerated in SOC medium for 1 h at 37° C. with shaking at 160 rpm, and then selected on Luria-Bertani (LB) agar medium supplemented with ampicillin (100 μg mL^−1) and chloramphenicol (30 μg mL^−1) (Sigma Aldrich). After overnight incubation at 37° C., the obtained colonies on LB agar medium with antibiotics were checked for the presence of the recombined plasmid containing the appropriate cloned orfs by PCR using specific primers.
Overnight culture of E. coli strain BL21(DE3)(pLysS), harboring each recombinant plasmid, was diluted to 1% (vol/vol) in LB medium containing ampicillin (100 μg mL^−1) and chloramphenicol (30 μg mL^−1) and then grown aerobically at 37° C. […]
Then the obtained solution was adjusted to pH 5 using acetic acid and then its activity (AU/mL) against E. coli colistin-resistant strain was evaluated, as described previously.

Another assay has as its system E. coli SBS36. The note with it: E. coli SBS36, truncated LPS. The procedure: (§1) The cell-free supernatant (CFS) was obtained by centrifugation (8 000 g, 10 min, 4° C.) of a culture of L. paracasei I-CNCM 5369 grown without shaking on MRS medium for 24 to 30 h at 37° C. Then 40 mL of the obtained CFS was loaded onto a reversed phase C18 (Agilent, USA) cartridge. Afterwards, a washing step was performed with 10% (v/v) acetonitrile followed-up by an elution with 40 mL of 20% (v/v) acetonitrile solution in order to eluate the active fraction. The active fraction was dried using SpeedVac and resuspended in 1:10 of the initial volume of ultrapure water. The resulting active solution was designed as fraction E20 (or E20% particularly in the figures) throughout the text. Fraction E20 was stored at 4° C. and therefore used for the different tests to characterize the anti-E. coli activity. Noteworthy, E20 fraction was tested against a panel of E. coli strains with different genotypes to examine their sensibility to the putative bacteriocin(s) contained in this fraction. This assessment was performed by the determination of the minimal inhibitory concentration (MIC) values, which were ranging from 250 to 2 000 μg/mL (Table 5).
(§2) E20 fraction prepared from L. paracasei I-CNCM 5369, was half-diluted and mixed with colistin at a concentration ranging from 1 to 128 μg/mL in BHI medium. The resulting formulations were tested against E. coli 184, carrying the mcr-1 gene, as well as on other E. coli strains (Table 6). After an overnight period of incubation at 37° C., the growth of E. coli strains was checked by spectrophotometry at OD600 nm, and new MIC values of colistin/E20 were determined. […] Indeed, the decreased from 8 to 2 μg/mL in the presence of E20 fraction. This synergetic interaction was as well observed for other E. coli strains, where the MIC values decreased twice for E. coli E4A4WT, 4 times folds for E. coli 289 and 8 times for E. coli E4A4 variant. […] The weight composition of the mixture of E20 fraction+colistin is indicated in brackets next to the MIC value. The first value refers to the amount of colistin in μg/mL, whereas the second in brackets refers to the amount of E20 fraction in μg/mL).
(§3) The alginate nanoparticles (Alg NPs) were obtained by a top down process (ball milling) and used at a concentration of 500 μg/mL. The E20 fraction was mixed at a concentration of 60 μg/mL with this suspension, which corresponds to 12% of the used Alg NPs concentration. […] To gain insights on the effects of alginate nanoparticles, colistin was also loaded on Alg NPs and the resulting formulation (colistin-Alg NPs) was tested against same target E. coli strains.

In the next assay the test system is E. coli 184. Conditions: E. coli 184, mcr-1+. The procedure:
as §1, §2, §3

In a further assay the test system is E. coli TOP10. Conditions: E. coli TOP10, LPS-. How it is done:
as §1, §2, §3

Another assay has as its system E. coli 289. The note with it: E. coli 289, mcr-1−. The procedure: as §1, §2, §3
Another assay relates to panel of E. coli strains. Nature of the assay: Anti-E. coli activity / MIC over a panel of strains.
Another assay concerns E. coli CIP7628. Nature of the assay: MIC determination. The note with it: E. coli CIP7628, reference strain. The procedure: as §1
The alginate nanoparticles (Alg NPs) were obtained by a top down process (ball milling) and used at a concentration of 500 μg/mL. […]

For a further assay, the system named is E. coli E4A4 variant. Description: MIC determination. The note with it: colistin unsensibilised. How it is done:
as §1
as §2, with “The first value refers to the amount of colistin in μg/mL, whereas the second in brackets refers to the amount of E20 fraction in μg/mL).” left out

Assay [2] relates to E. coli ATCC8739. Description: MIC determination. Conditions: E. coli ATCC8739, reference strain. How it is done:
as §1
as §2, with “The first value refers to the amount of colistin in μg/mL, whereas the second in brackets refers to the amount of E20 fraction in μg/mL).” left out

The subject of another assay is E. coli E4A4 WT. Nature of the assay: MIC determination. The note with it: environmental strain. The procedure: as §1
as §2, with “The first value refers to the amount of colistin in μg/mL, whereas the second in brackets refers to the amount of E20 fraction in μg/mL).” left out

For assay [3], the system named is E. coli ATCC8739. Nature of the assay: Killing curves. The note with it: BHI, inhibitory concentration (colistin 16 μg/mL), pH 4.5-5, 37° C. The procedure:
The killing curves were determined on three E. coli strains, because of for their resistance or sensitivity to colistin. These strains were E. coli 184 (mcr-1), E. coli E4A4 variant with resistance to colistin, and E. coli ATCC8739 colistin-sensitive reference strain (Table 5). These strains were inoculated in BHI (Brain Heart Infusion) medium containing the semi-purified fraction of E20 fraction at inhibitory concentration. An untreated E. coli ATCC8739 control treated with inhibitory concentration of colistin (16 μg/mL) was also tested. The pH of the medium was adjusted to 4.5-5 in the various samples, which were incubated at 37° C. for 8 h. At regular intervals of time, samples were taken to determine the number of colony forming units per mL (CFU/mL) under each tested condition.
As depicted in the FIG. 2, the number of CFU/mL of the strains treated with E20 fraction decreased rapidly with no visible growth (0 CFU/mL), after 1 h of incubation. […] A similar data was obtained after 1 h of incubation for E. coli ATCC8739 treated with colistin (16 μg/mL).

Turning to “Orf10 HisTag C-ter: recombinant Orf010 peptide with C-terminal His-Tag expressed in E. coli BL21 (DE3) (pLysS) (MYTMTNLKDKELSQITGGFAFVIPVAAILGFLASDAWSHADEIAGGATSGWSLADKSHSL-{His‑tag}; not fully specified; listed as Lactobacillus paracasei)”, the “anti E. coli activity” value in [1] was found to be 200 AU/mL.
In the case of colistin, the minimum inhibitory concentration (MIC) with E. coli SBS36 is 2 µg/mL; in the assay on E. coli 184, 8 µg/mL; with E. coli TOP10 it was 1 µg/mL; with E. coli 289, 8 µg/mL; against E. coli CIP7628, 1 µg/mL; with E. coli E4A4 variant, 16 µg/mL. The MIC with E. coli ATCC8739 [2] and in the assay with E. coli E4A4 WT was 2 µg/mL each time. Moreover, the “colistin MIC of E. coli 184 compared to reference strain E. coli ATCC8739” value in the assay with panel of E. coli strains is given as “four folds higher”. Besides, the “incubation time to no visible growth (0 CFU/mL)” value in the assay with E. coli ATCC8739 [3] worked out at 1 h.
